{"source": "patent US11591288B2", "about": "“Compositions and methods for treating atherosclerotic cardiovascular disease” (GAVISH-GALILEE BIO APPLICATIONS LTD., priority 2017, dated 2023)", "key": {"HDL": {"test_system": "HDL", "experiment": "HDL-lyso-DGTS interaction, Trp fluorescence quenching", "format": "binding, human", "description": "FIGS. 10A-10B show tryptophan fluorescence spectra of HDL (0.03 mg/ml) incubated with/without lyso-DGTS at various concentrations (1, 5, 10, 25, 50, 75, and 100 μg/ml) in black 96-well plates for 4 h at 37° C. (10A) or 25° C. (10B). The fluorescence was measured at excitation/emission 290/320-340 nm. The ability of lyso-DGTS to elevate HDL activity correlates with its binding affinity to HDL. Each experiment repeated separately at least three times.\nHDL and LDL were isolated from human plasma samples by discontinuous density gradient ultracentrifugation and dialyzed against saline containing sodium ethylenediaminetetraacetic acid (EDTA; 1 mmol/L) to protect the lipoproteins against oxidation. Before generating the experiments, LDL and HDL were dialyzed twice, for 1 h each time, and once more overnight against PBS at 4° C. to remove EDTA.\nIn order to test whether the protective effect of lyso-DGTS on HDL occurs via specific interaction between lyso-DGTS and the lipoprotein, the HDL-lyso-DGTS interaction was investigated by the Trp-fluorescence-quenching method. […] (FIG. 10A) and 25° C. (FIG. 10B) in the 300-450 nm range with an excitation wavelength of 290 nm. Lyso-DGTS quenched HDL fluorescence in a dose-dependent manner at both temperatures.\nQuenching pathways can be described by the Stem-Volmer equation (eq. 1 above). The Stern-Volmer curve was linear at the tested concentration of lyso-DGTS at both temperatures (with R>0.99 and p<0.0001). The Ksv values were (5.59±0.42)×10^3 M^−1 at 37° C. (FIG. 11A) and (4.83±0.59)×10^3 M^−1 at 25° C.\nThe binding constant and binding sites were calculated as shown for rePON1, using eq. 2 above. […] (FIG. 11D). The values obtained for n were not affected by temperature and were equal to 1 (Table 5). The thermodynamic parameters: enthalpy (ΔH), entropy (ΔS), and free energy (ΔG) were calculated to characterize the HDL-lyso-DGTS interaction type."}, "J774A.1 macrophages": {"test_system": "J774A.1 macrophages", "experiment": "Ox-LDL-induced foam cell formation, Oil Red O staining", "format": "cell-based, murine", "description": "J774A.1 macrophage cells were grown in RPMI 1640 media containing 10% FBS in cell culture flask till ˜90% confluence (37° C. incubator containing 5% CO2). The cells were incubated at 37° C. overnight under sterile conditions, approximately 1×10^5 J774.1 cells/well in a 96-well plate. Macrophage cells were incubated for an additional 24 h with lyso-DGTS (50 and 100 μg/ml), rePON1 (50 μg/ml), or rePON1 preincubated with different concentrations of lyso-DGTS (10, 20, 50 and 100 μg/ml). The cells were washed and ox-LDL (25 μg/ml in a RPMI medium) was added for another 24 h to yield foam cells. The cells were washed 3 times with PBS, following fixation with 4% formaldehyde for 10 min, the cells were stained with Oil Red O (0.35 mg/100 ml in 60% isopropanol; Sigma-Aldrich) for 15 min at 37° C. to evaluate the characteristic lipid accumulation in macrophage-derived foam cells. Foam cell formation was observed under microscope.\nThe density of lipid content was evaluated by alcohol extraction after staining. The absorbance at 514 nm was measured using microplate reader (Infinite M200 PRO fluorescence spectrophotometer (Tecan)).\nMacrophages uptake of ox-LDL, forming foam cell, is the hallmark of atherogenesis. The ability of lyso-DGTS or rePON1 incubated with lyso-DGTS to attenuate foam cell formation was examined. […]"}, "APOA1": {"target": "APOA1 (Homo sapiens, UniProt P02647)", "sequence (P02647 19-267, species assumed)": "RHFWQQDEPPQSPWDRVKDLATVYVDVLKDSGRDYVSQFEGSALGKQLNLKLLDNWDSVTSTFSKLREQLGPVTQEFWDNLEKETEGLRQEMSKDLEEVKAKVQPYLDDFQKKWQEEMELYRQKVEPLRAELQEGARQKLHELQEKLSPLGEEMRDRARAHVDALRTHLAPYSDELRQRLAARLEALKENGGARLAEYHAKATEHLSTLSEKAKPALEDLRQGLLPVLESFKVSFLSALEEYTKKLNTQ", "experiment": "APOA1-lyso-DGTS interaction, Trp fluorescence quenching", "format": "binding", "details": "for Kd: read-out: Binding constant Ka, lyso-DGTS-APOA1 (converted)", "description": "The Trp-fluorescence-quenching method was further used to examine the interaction between lyso-DGTS and APOA1, the major protein component of HDL. Ka and thermodynamic parameters were also calculated (Table 6). […] The values obtained for n were not affected by temperature and were equal to=1 (Table 6).\nThe thermodynamic parameters: enthalpy (ΔH), entropy (ΔS), and free energy (ΔG) were calculated to characterize the APOA1-lyso-DGTS interaction type."}, "rePON1": {"test_system": "rePON1", "experiment": "rePON1-lyso-DGTS interaction, Trp fluorescence quenching", "format": "binding", "description": "To 200 μl rePON1 (50 μg/ml=1.16 μM) solution in black 96-well plate wells was added lyso-DGTS at various concentration (0, 1, 5, 10, 25, 50, 75, and 100 μg/ml). The solutions were incubated for 2 h at 25° C. or 37° C. Fluorescence measurements were performed with an Infinite M200 PRO fluorescence spectrophotometer (Tecan) with emission spectra recorded from 320 to 450 nm at an excitation wavelength of 290 nm.\nThe effect of lyso-DGTS on rePON1 can result from a specific interaction between the lipid and the enzyme which was studied using Trp fluorescence quenching method. […] (FIG. 3A) and 37° C. (FIG. 3B) in the 300-450 nm range with an excitation wavelength of 290 nm. Lyso-DGTS quenched the fluorescence of rePON1 in a dose dependent manner at both temperatures.\nQuenching pathways can be described by the Stern-Volmer equation (eq. 1):\n[formula] where F0 and F are the fluorescence intensities in the absence and presence of quencher (lyso-DGTS), respectively, Ksv is the Stern-Volmer quenching constant, and [Q] is the quencher concentration (M).\nThe binding constant and binding sites were calculated using (eq. 2):\n[formula] where Ka is the binding constant, reflecting the degree of interaction between rePON1 and lyso-DGTS, and n is the number of binding sites specifying the number of lyso-DGTS molecules bound to a rePON1. […] (2.377×10^3 M^−1; FIG. 4C). The values obtained for n were not affected by the temperature and were equal to ˜1 (Table 4). The thermodynamic parameters: enthalpy (ΔH), entropy (ΔS), and free energy (ΔG) were calculated to characterize the type of rePON1-lyso-DGTS interaction."}}, "note": "Read-outs that look alike come from different tables or passages of the source.", "data": [{"smiles": "CC/C=C\\C/C=C\\C/C=C\\C/C=C\\C/C=C\\CCCC(=O)OCC(O)COCCC(C(=O)[O-])[N+](C)(C)C", "note": "(stereo not drawn) [lyso-DGTS, lyso-diacylglyceryltrimethylhornmoserine]", "values": [{"measurement": "Stern-Volmer quenching constant Ksv, HDL", "setting": "HDL; 25° C.", "value": "(4.83±0.59)×10^3 M^−1"}, {"measurement": "Stern-Volmer quenching constant Ksv, HDL", "setting": "HDL; 37° C.", "value": "(5.59±0.42)×10^3 M^−1"}, {"measurement": "Binding constant Ka, lyso-DGTS-HDL", "setting": "HDL; 298 K (25° C.)", "value": 3780, "unit": "M⁻¹"}, {"measurement": "Binding constant Ka, lyso-DGTS-HDL", "setting": "HDL; 310 K (37° C.)", "value": 21650, "unit": "M⁻¹"}, {"measurement": "enhancement of rePON1 ability to inhibit foam cell formation", "setting": "J774A.1 macrophages; 100 μg/ml lyso-DGTS vs rePON1 alone, not significant", "value": "~10", "unit": "%"}, {"measurement": "reduction of oil red staining intensity", "setting": "J774A.1 macrophages; lyso-DGTS (50 μg/ml) alone, then ox-LDL 25 μg/ml 24 h", "value": 32, "unit": "%"}, {"measurement": "number of binding sites (n), lyso-DGTS-APOA1", "setting": "APOA1; 298 K", "value": "1.01 ± 0.05"}, {"measurement": "ΔG, lyso-DGTS-APOA1 interaction", "setting": "APOA1; 298 K", "value": -1.09, "unit": "kcal/mol"}, {"measurement": "Kd", "setting": "APOA1; 298 K (25° C.)", "value": 422, "unit": "µM"}, {"measurement": "number of binding sites (n), lyso-DGTS-APOA1", "setting": "APOA1; 310 K", "value": "1.23 ± 0.05"}, {"measurement": "ΔG, lyso-DGTS-APOA1 interaction", "setting": "APOA1; 310 K", "value": -1.464, "unit": "kcal/mol"}, {"measurement": "Kd", "setting": "APOA1; 310 K (37° C.)", "value": 43.9, "unit": "µM"}, {"measurement": "ΔH, lyso-DGTS-APOA1 interaction", "setting": "APOA1; from 298 and 310 K", "value": 8.243, "unit": "kcal/mol"}, {"measurement": "ΔS, lyso-DGTS-APOA1 interaction", "setting": "APOA1; from 298 and 310 K", "value": 131.126, "unit": "J/mol K"}, {"measurement": "Stern-Volmer quenching constant Ksv, rePON1", "setting": "rePON1; 25° C.", "value": "(1.18±0.13)×10^+4 M^−1"}, {"measurement": "Stern-Volmer quenching constant Ksv, rePON1", "setting": "rePON1; 37° C.", "value": "(0.93±0.03)×10^+4 M^−1"}, {"measurement": "Binding constant Ka, lyso-DGTS-rePON1", "setting": "rePON1; 298 K (25° C.)", "value": 10520, "unit": "M⁻¹"}, {"measurement": "Binding constant Ka, lyso-DGTS-rePON1", "setting": "rePON1; 310 K (37° C.)", "value": 2377, "unit": "M⁻¹"}]}]}
